SMILES | melting point [°C] | boiling point [°C] | log10 Henry constant (atm·m³/mol) | ready biodegradability | log10 vapour pressure (mmHg) | log10 Koa | log10 Koc (L/kg)
Cc1cc(Cl)ccc1[N+](=O)[O-] | 25.5 |  |  |  |  |  | 
COC(=O)C(C)(C)C |  | 101 | -3.37 |  |  |  | 
Clc1cc(Cl)c(Cl)c(-c2cc(Cl)c(Cl)c(Cl)c2Cl)c1 |  |  | -5.89 |  |  |  | 
O=C1c2ccccc2C(=O)c2c(Cl)cccc21 | 163 |  |  | not readily biodegradable |  |  | 
Cc1cc(Cl)nc(Cl)n1 | 46.5 | 219 |  |  |  |  | 
Clc1[nH]nc2ccccc12 | 149 |  |  |  |  |  | 
O=C(O)c1ccnc2ccccc12 | 254 |  |  |  |  |  | 
CC(C)(c1ccc(OCCO)cc1)c1ccc(OCCO)cc1 |  |  |  | not readily biodegradable |  |  | 
Oc1cc(O)cc(O)c1 | 218 |  |  | readily biodegradable |  |  | 
O=C(O)c1cc2ccccc2[nH]1 | 206 |  |  |  |  |  | 
CC1OC(OCC2OC(Oc3c(-c4ccc(O)cc4)oc4cc(OC5OC(C)C(O)C(O)C5O)cc(O)c4c3=O)C(O)C(O)C2O)C(O)C(O)C1O (configuration not stated) | 250 |  |  |  |  |  | 
N#Cc1ccnc2ccccc12 | 104 | 242 |  |  |  |  | 
OCCCBr |  |  |  |  | -1 |  | 
CC1=CCC(C(C)(C)O)CC1 (configuration not stated) | 37 | 219 | -5.65 | readily biodegradable | -1.37 |  | 
Cc1nc2ccccc2o1 | 9.5 | 200 |  |  |  |  | 
Fc1c(F)c(F)c(CBr)c(F)c1F |  | 174 |  |  |  |  | 
C1CCCCNCCC1 | -19 |  |  |  |  |  | 
COc1cc(N)ccc1C | 56.5 | 251 |  |  |  |  | 
Cc1cc(C)c(C)c(O)c1C | 118 | 247 |  |  |  |  | 
CC(C=O)=Cc1ccccc1 |  | 252 |  |  | -1.82 |  | 
ClC1=C(Cl)C2(Cl)C3C(Cl)C=CC3C1(Cl)C2(Cl)Cl (configuration not stated) | 95.5 | 310 | -3.53 | not readily biodegradable | -3.4 | 7.64 | 4.38
CCO[SiH](OCC)OCC |  | 134 |  |  |  |  | 
C[C@H](NC(=O)c1ccccc1)C(=O)O (racemic) | 166 |  |  |  |  |  | 
COCC(C)Cl (configuration not stated) |  | 99 |  |  |  |  | 

SMILES | melting point [°C] | boiling point [°C] | log10 Henry constant (atm·m³/mol) | ready biodegradability | log10 vapour pressure (mmHg) | log10 Koa | log10 Koc (L/kg)
C=C(C)C=CC(=C)C | -9 | 146 |  |  |  |  | 
CCC(C)C(C)(COC(N)=O)COC(N)=O (configuration not stated) | 77 |  |  |  |  |  | 
CCC(Br)(CC)C(=O)NC(=O)NC(C)=O | 109 |  |  |  |  |  | 
COC(=O)CCc1ccccc1 |  | 238 |  |  |  |  | 
CCCCCCCCCCCC(=O)OCCOC(=O)CCCCCCCCCCC | 56.6 |  |  |  |  |  | 
Cc1ccc(Sc2ccc(C)cc2)cc1 | 57.3 |  |  |  |  |  | 
c1ccc(O[Si](Oc2ccccc2)(Oc2ccccc2)Oc2ccccc2)cc1 | 49 | 417 |  |  |  |  | 
CCCCOc1ccc(CC(=O)NO)cc1 | 154 |  |  |  |  |  | 
N#CC(Cl)Cl |  | 112 |  |  |  |  | 
COc1ccc(C(=O)O)c(OC)c1OC | 100 |  |  |  |  |  | 
O=P1(N(CCCl)CCCl)NCCCO1 (configuration not stated) | 51.5 |  |  | not readily biodegradable |  |  | 
CCCCCCCCCCCCCCCCCCCC(=O)O | 75.4 | 328 |  |  | -8.74 |  | 
C=CCCCCCCCCCCCCCCCCCCCCC(=O)O |  |  |  | readily biodegradable |  |  | 
CC(C)[C@@H](N)C(=O)O | 315 |  |  |  |  |  | 
C[C@H](N[C@H](CCc1ccccc1)C(=O)O)C(=O)N1CCC[C@H]1C(=O)O | 150 |  |  |  |  |  | 
COc1ccc(C=O)cc1O | 114 |  |  |  |  |  | 
Cc1ccc(S(=O)c2ccc(C)cc2)cc1 | 95 |  |  |  |  |  | 
C#CCC1(OC(N)=O)CCCCC1 | 99 |  |  |  |  |  | 
Clc1cccc(-c2cc(Cl)cc(Cl)c2)c1 |  |  | -3.77 |  |  |  | 
Cc1c(N)cccc1Cl | 1 | 245 |  |  |  |  | 
CCCCCC(=O)c1ccccc1 | 27 | 265 |  |  |  |  | 
COC(=O)CCl | -32.1 | 130 |  | readily biodegradable | 0.882 |  | 
CCCC(N)CCC |  | 140 |  |  |  |  | 
O=C1c2ccccc2-c2ccc(O)cc21 | 205 |  |  |  |  |  | 

SMILES | melting point [°C] | boiling point [°C] | log10 Henry constant (atm·m³/mol) | ready biodegradability | log10 vapour pressure (mmHg) | log10 Koa | log10 Koc (L/kg)
CCNC1=NC(=O)C(c2ccccc2)O1 (configuration not stated) | 148 |  |  |  |  |  | 
CC(Cl)(Cl)C(=O)[O][Na] |  |  |  |  |  |  | 0
COc1ccc(C(=O)c2ccc(OC)cc2O)c(O)c1 | 140 |  |  |  |  |  | 
CCCCCCC(Cl)Cl |  | 191 |  |  |  |  | 
N#Cc1ccccn1 | 29 | 224 |  |  |  |  | 
Cc1cc(O)c2ccccc2c1O | 169 |  |  |  |  |  | 
CCOC(=O)c1ccc(NC(=O)CCl)cc1 |  |  |  | readily biodegradable |  |  | 
CCN(CC)c1ccc(C=O)cc1 | 41 |  |  | not readily biodegradable |  |  | 
Cc1cccc(C(C)(C)C)c1 | -41.4 | 189 |  |  |  |  | 
Clc1ccc(-c2ccccc2)cc1 | 78.8 | 293 | -3.24 | readily biodegradable | -1.98 | 6.8 | 
N#Cc1cc([N+](=O)[O-])c(Cl)c([N+](=O)[O-])c1 | 141 |  |  |  |  |  | 
CC12CCC(CC1)C2(C)C | 158 | 161 |  |  |  |  | 
Cc1cc(C)cc(OCC2CNC(=O)O2)c1 (configuration not stated) | 122 |  |  |  |  |  | 
C[Si](C)(C)CCl |  | 98.5 |  |  |  |  | 
OC[C@@H](O)[C@H]1O[C@@H]2O[C@H](C(Cl)(Cl)Cl)O[C@@H]2[C@H]1O | 183 |  |  |  |  |  | 
FCCCCCCCl |  | 168 |  |  |  |  | 
CCOC(=O)c1ccccc1Cl |  | 243 |  |  |  |  | 
CCCCCCS | -81 | 151 |  |  | 0.624 |  | 
COc1ccc2[nH]c(S(=O)Cc3ncc(C)c(OC)c3C)nc2c1 (configuration not stated) | 156 |  |  |  |  |  | 
CCCCOC(=O)COc1cc(Cl)c(Cl)cc1Cl | 28.5 |  |  |  | -4.82 |  | 
c1ccc(COCc2ccccc2)cc1 | 3.6 | 298 |  | not readily biodegradable | -2.99 |  | 
COc1ccc2[nH]cc(CCN(C)C)c2c1 | 69.5 |  |  |  |  |  | 
O=Cc1ccccc1O | -7 | 197 |  |  | -0.227 |  | 
